Laboratory results reported in publication PMC8641298 (ACS infectious diseases, 2020).

Key:
HEK293 cytotoxicity = assay type: cell-based; conditions: human
HeLa cytotoxicity = assay type: cell-based; conditions: human, HeLa cells
S. mansoni adults = assay: In vitro phenotypic screen of S. mansoni adults; assay type: cell-based, Schistosoma mansoni; conditions: for Phenotypic descriptors, adults 5 h / Phenotypic descriptors, adults 24 h / Phenotypic descriptors, adults 48 h: assays performed at 10 μM (footnote d)
adult S. mansoni = assay: WormAssay, average adult worm motility; assay type: cell-based, Schistosoma mansoni; conditions: 5 h; for WormAssay (average adult worm movement ± SD): DMSO control 104.1 ± 24.4; for EC50: Schistosoma mansoni, read-out: EC50 of paralysis measured by WormAssay
[1] = system: acetylated α-tubulin in HEK293 cells; assay: HEK293 MT-stabilization assay; assay type: cell-based; conditions: 4 h
S. mansoni somules = assay: In vitro phenotypic screen of S. mansoni somules; assay type: cell-based, Schistosoma mansoni
[2] = HEK293 cells (method text: HEK 293T)
[3] = assays performed at 10 μM (footnote d)

EC50 (adult S. mansoni) | Compound | CC50 at 48 h (HEK293 cytotoxicity; [2]) | CC50 at 48 h (HeLa cytotoxicity) | Phenotypic descriptors, adults (5 μM) 5 h (S. mansoni adults) | Phenotypic descriptors, adults (5 μM) 24 h (S. mansoni adults) | Phenotypic descriptors, adults (5 μM) 48 h (S. mansoni adults) | WormAssay (average adult worm movement ± SD) (adult S. mansoni; 5 μM) | Fold-change in acetylated α-tubulin ([1]; 1 μM) | Phenotypic descriptors, somules (1 μM) 24 h (S. mansoni somules) | Phenotypic descriptors, somules (1 μM) 48 h (S. mansoni somules) | Phenotypic descriptors, somules (10 μM) 24 h (S. mansoni somules) | Phenotypic descriptors, somules (10 μM) 48 h (S. mansoni somules) | CC50 at 48 h (HEK293 cytotoxicity) | Phenotypic descriptors, adults 5 h (S. mansoni adults) | Phenotypic descriptors, adults 24 h (S. mansoni adults) | Phenotypic descriptors, adults 48 h (S. mansoni adults) | WormAssay (average adult worm movement ± SD) (adult S. mansoni; [3]) | Fold-change in acetylated α-tubulin (significance) ([1]; either 1 or 10 μM) | Fold-change in acetylated α-tubulin ([1]; 10 μM)
 | CC1(CNc2nc(-c3cnccn3)nc(Cl)c2-c2c(F)cc(F)cc2F)N=N1 [Compound 22, 6-chloro-N-((3-methyl-3H-diazirin-3-yl)methyl)-2-(pyrazin-2-yl)-5-(2,4,6-trifluorophenyl)-pyrimidin-4-amine] | 50 ± 10 nM | 0.04 ± 0.012 µM | N | N | Unc | 131.4 ± 27.4 | 2.68 ± 0.04 (1 μM) fold | R, deg | R, deg | R, deg | R, deg |  |  |  |  |  |  | 
 | O=C(C1CCCCC1)N1CC(=O)N2CCc3ccccc3C2C1 (centres unmarked) [PZQ, praziquantel, reference compound] |  |  |  |  |  | 1.8 ± 5.1 |  |  |  |  |  |  |  |  |  |  |  | 
 | C[C@H](Nc1nc(-c2ccc3ccccc3n2)nc(Cl)c1-c1c(F)cc(F)cc1F)C(F)(F)F [Compound 21, (S)-6-chloro-2-(quinolin-2-yl)-5-(2,4,6-trifluorophenyl)-N-(1,1,1-trifluoropropan-2-yl)pyrimidin-4-amine] |  |  | N | N | S, on sides | 75.3 ± 18.9 | 1.95 ± 0.2 (1 μM) fold | N | N | R, deg | R, deg |  |  |  |  |  |  | 
 | CNCCCOc1cc(F)c(-c2c(Cl)nc3ncnn3c2N[C@@H](C)C(F)(F)F)c(F)c1 [Compound 12, cevipabulin, reference compound] |  |  |  |  |  |  |  |  |  |  |  | 28 nM |  |  |  |  |  | 
~1000 nM | CC(C)[C@H](C)Nc1nc(-c2cccs2)nc(Cl)c1-c1c(F)cc(F)cc1F [Compound 29, (S)-6-chloro-N-(3-methylbutan-2-yl)-2-(thiophen-2-yl)-5-(2,4,6-trifluorophenyl)pyrimidin-4-amine] | 29100 nM | 8.78 ± 1.39 µM | I, on sides | I, on sides | I, on sides | 5.0 ± 11.5 |  | R, S | R, S | R, I | R, I |  |  |  |  |  |  | 
~1000 nM | CC(C)[C@@H](C)Nc1nc(-c2cccs2)nc(Cl)c1-c1c(F)cc(F)cc1F [Compound 28, (R)-6-chloro-N-(3-methylbutan-2-yl)-2-(thiophen-2-yl)-5-(2,4,6-trifluorophenyl)pyrimidin-4-amine] | 26800 nM | 17.4 ± 2 µM | I, on sides | I, on sides | I, on sides | 2.9 ± 8.8 |  | R, I | R, I | R, I | R, I |  |  |  |  |  |  | 
 | C[C@H](Nc1nc(-c2nccs2)nc(Cl)c1-c1c(F)cc(F)cc1F)C(F)(F)F [Compound 23, (S)-6-chloro-2-(thiazol-2-yl)-5-(2,4,6-trifluorophenyl)-N-(1,1,1-trifluoropropan-2-yl)pyrimidin-4-amine] | 8 ± 2 nM | 0.006 ± 0.001 µM |  |  |  |  |  | Deg, unc | Deg, unc | Deg, unc | Deg, unc |  | Unc, dark^d | Unc, dark^d | Unc, dark^d | 62.1 ± 26.4^d |  | 
 | C[C@H](Nc1cc(Cl)nc(-c2cccs2)n1)C(F)(F)F [Compound 31, (S)-6-chloro-2-(thiophen-2-yl)-N-(1,1,1-trifluoropropan-2-yl)pyrimidin-4-amine] |  |  | N | N | N | 89.0 ± 18.6 |  | R, unc | N | R, unc | N |  |  |  |  |  |  | 
 | CC1(CNc2nc(-c3cccs3)nc(Cl)c2-c2c(F)cc(F)cc2F)N=N1 [Compound 30, 6-chloro-N-((3-methyl-3H-diazirin-3-yl)methyl)-2-(thiophen-2-yl)-5-(2,4,6-trifluorophenyl)-pyrimidin-4-amine] | 1270 ± 35 nM | 3.89 ± 1.86 µM | S, on sides | S, on sides | S, on sides | 12.9 ± 18.1 |  | S | S, R | R, I | R, I |  |  |  |  |  |  | 
 | C[C@H](Nc1nc(-c2cccs2)ncc1-c1c(F)cc(F)cc1F)C(F)(F)F [Compound 26, (S)-2-(thiophen-2-yl)-5-(2,4,6-trifluorophenyl)-N-(1,1,1-trifluoropropan-2-yl)pyrimidin-4-amine] | > 50000 nM | > 100 µM |  |  |  |  |  | R, S | R | R, S | R, S |  | S^d | Unc, on sides^d | S, dark, on sides^d | 11.0 ± 14.7^d | NS^e | 
~1000 nM | C[C@H](Nc1nc(-c2cccs2)nc(Cl)c1-c1c(F)cc(F)cc1F)C(F)(F)F [Compound 25, (S)-6-chloro-2-(thiophen-2-yl)-5-(2,4,6-trifluorophenyl)-N-(1,1,1-trifluoropropan-2-yl)pyrimidin-4-amine] | 1270 ± 106 nM | 1.66 ± 0.612 µM | I, on sides | I, on sides | I, on sides | 5.5 ± 9.8 |  | R, S | R, S | rounding and immobility and R, I | R, I, |  |  |  |  |  |  | 3.0 ± 0.6 (10 μM) fold
 | C[C@H](Nc1nc(-c2ccco2)nc(Cl)c1-c1c(F)cc(F)cc1F)C(F)(F)F [Compound 24, (S)-6-chloro-2-(furan-2-yl)-5-(2,4,6-trifluorophenyl)-N-(1,1,1-trifluoropropan-2-yl)pyrimidin-4-amine] |  |  |  |  |  |  |  | N | N | N | Deg, unc |  | S^d | Unc, on sides^d | S, dark, on sides^d | 56.0 ± 21.5^d |  | 2.7 ± 0.2 (10 μM) fold
 | Fc1cc(F)c(-c2cnc(-c3cccs3)nc2Cl)c(F)c1 [Compound 32, 4-chloro-2-(thiophen-2-yl)-5-(2,4,6-trifluorophenyl)pyrimidine] |  |  | N | N | N | 78.0 ± 20.1 |  | N | N | R, S | N |  |  |  |  |  |  | 
 | C[C@@H](Nc1nc(-c2cccs2)nc(Cl)c1-c1c(F)cc(F)cc1F)C(F)(F)F [Compound 27, (R)-6-chloro-2-(thiophen-2-yl)-5-(2,4,6-trifluorophenyl)-N-(1,1,1-trifluoropropan-2-yl)pyrimidin-4-amine] | 29400 nM | 27.7 ± 10.4 µM | I, on sides | I, on sides | I, on sides | 6.3 ± 9.3 |  | R, S | R | R, I | R, I |  |  |  |  |  |  | 
